Publication PMC4277828 (BMC Pharmacology & Toxicology, 2014)
“And” between values parts separate entries of the source, which are not always exact repeats. Equal entries are not always repeated. “Also recorded” adds a separate entry of the source. Where two headings read alike, the source gives them in different places. Marks after values point to notes of the source that are not given here.

Experiments:
[1] = in vivo, 300 mg
[2] = human, in vivo
[3] = design: method as in PMID 15844071; settings: cited from earlier work
clinical = settings: human, plasma, oral, 300 mg
[4] = Tolerability and safety of rifabutin and LPV/r: clinical and laboratory adverse events (DAIDS grading)
[5] = Steady-state plasma pharmacokinetics of rifabutin and 25-O-desacetylrifabutin with and without LPV/r-based ART (three-period crossover, LC/MS/MS, non-compartmental analysis); settings: for AUC(0-t): human, plasma, oral, median (interquartile range), n = 14
[6] = Steady-state plasma pharmacokinetics of lopinavir given with two rifabutin doses (LCMS/MS, non-compartmental analysis); settings: for AUC(0-t): human, plasma, oral, Median (Interquartile range), 14 patients
[7] = RBT dose at time of AE 150 mg daily (with LPV/r ART), listed as RBT
[8] = RBT dose at time of AE 150 mg tiw (with LPV/r ART), listed as RBT
[9] = sixteen patients, all rifabutin doses

Q: With 25-O-desacetylrifabutin [d-RBT] as the molecule, how does the “AUC0–48” value [1] read?
A: 546.6 (471.4-688.2)^* ng.h/mL

Q: What about the “Association between plasma concentration and adverse events such as neutropenia or elevated transaminases” value [2] of the same molecule?
A: unable to show a significant association

Q: Which results are given for `CO[C@H]1/C=C/O[C@@]2(C)Oc3c(C)c(O)c4c(c3C2=O)C2=NC3(CCN(CC(C)C)CC3)NC2=C(NC(=O)/C(C)=C\C=C\[C@H](C)[C@H](O)[C@@H](C)[C@@H](O)[C@@H](C)[C@H](OC(C)=O)[C@@H]1C)C4=O` [Rifabutin, rifabutin]?
A: Patients who relapsed or failed therapy that developed ARR ([3]; TB-HIV co-infected patients with AUC0–24 < 4.5 μg.h/mL): 83%; Patients who relapsed or failed therapy that developed ARR ([3]; TB-HIV co-infected patients with AUC above the threshold of 4.5 μg.h/mL): 33%; Cmax (clinical): 292 ng/mL; AE (grade 3 laboratory adverse event, individual subject) [4, 7]: Neutropenia; also recorded: AST increased; also recorded: Amylase increased; Days on RBT at grade 3 laboratory AE (individual subject) [4, 7]: 53 days and 77 days and 106 days and 113 days and 57 days; AE (grade 3 laboratory adverse event, individual subject) [4, 8]: AST increased; also recorded: Amylase increased; also recorded: Neutropenia; Days on RBT at grade 3 laboratory AE (individual subject) [4, 8]: 96 days and 119 days and 112 days; AE (grade 3 laboratory adverse event, individual subject) ([4]; RBT dose at time of AE 300 mg daily): Neutropenia; Days on RBT at grade 3 laboratory AE (individual subject) ([4]; RBT dose at time of AE 300 mg daily, listed as RBT): 29 days and 27 days and 28 days; Grade 4 laboratory toxicities / events ([4]; all doses, sixteen patients): no grade 4 laboratory toxicities; Tolerability ([4]; all doses, sixteen patients): well tolerated; Grade 4 laboratory toxicities / events ([4]; all doses, sixteen patients, listed as rifabutin): no grade 4 laboratory events; Association between plasma concentration and adverse events such as neutropenia or elevated transaminases ([4]; human, in vivo): unable to show a significant association; Uveitis ([4]; patient taking rifabutin 300 mg daily, after 1 month of rifabutin, prior to / coinciding with start of ART): One case of uveitis (grade 4); also recorded: Grade 2 uveitis occurred in one patient; Serious adverse events ([4]; sixteen patients): two serious adverse events (bacterial meningitis and pyelonephritis), both considered unrelated to rifabutin; Grade 3 elevations in transaminases and amylase, number [4, 9]: 2; Grade 3 neutropenia, number of occasions [4, 9]: 7 occasions; Grade 3 neutropenia, number of patients [4, 9]: 4 patients and 5 patients; GMR (90% CI) of Cmin24h ([5]; RBT 150 mg daily (with LPV/r ART) with RBT 300 mg daily): 2.7 (2.2 – 3.2); GMR (90% CI) of Cmin24h ([5]; RBT 150 mg tiw (with LPV/r ART) with RBT 300 mg daily): 1.2 (1.0 – 1.4); GMR (90% CI) of Cmin24h ([5]; RBT 150 mg tiw with RBT 150 mg daily (both with LPV/r ART)): 0.5 (0.4 – 0.5); Increase in AUC0–24 ([5]; daily dose of 150 mg compared to the three times a week dose, both with LPV/r): more than two fold increase; AUC(0-t) ([5]; 150 mg, AUC0–24, Rifabutin 150 mg daily plus LPV/r, steady state): 4770 ng·h/mL; AUC(0-t) ([5]; 150 mg, AUC0–24, Rifabutin 150 mg tiw plus LPV/r, steady state): 2310 ng·h/mL; AUC(0-t) ([5]; 150 mg, AUC0–48, Rifabutin 150 mg daily plus LPV/r, calculated by 2X AUC0–24): 9530 ng·h/mL; AUC(0-t) ([5]; 300 mg, AUC0–24, Rifabutin 300 mg daily without LPV/r, steady state): 3050 ng·h/mL; AUC(0-t) ([5]; 300 mg, AUC0–48, Rifabutin 300 mg daily without LPV/r, calculated by 2X AUC0–24): 6110 ng·h/mL; Patients with AUC0–24 values >4.5 μg.h/mL ([5]; rifabutin 150 mg daily with LPV/r): 71%; Patients with AUC0–24 values >4.5 μg.h/mL ([5]; rifabutin tiw dosing with LPV/r): 14%; Patients with AUC0-24 < 4.5 μg.h/mL ([5]; tiw rifabutin arm (150 mg tiw with LPV/r)): 86%

Q: Which “Median lopinavir trough (C0) concentrations versus recommended lower limit for ART-naïve patients” value ([6]; both rifabutin doses) does the source give for `Cc1cccc(C)c1OCC(=O)N[C@@H](Cc1ccccc1)[C@@H](O)C[C@H](Cc1ccccc1)NC(=O)[C@H](C(C)C)N1CCCNC1=O` [lopinavir] here?
A: > 1 µg

Q: What about the AUC(0-t) ([6]; AUC0–12, RBT 150 mg daily plus LPV/r (400/100 mg)) of the same molecule?
A: 160000 ng·h/mL

Q: What about the AUC(0-t) ([6]; AUC0–12, RBT 150 mg tiw plus LPV/r (400/100 mg)) of the same molecule?
A: 140000 ng·h/mL

Q: And the “Differences in AUC0–12 and Cmax between the two doses of rifabutin” value ([6]; rifabutin 150 mg daily versus 150 mg tiw)?
A: not significant
